This is an account of results in ChEMBL document CHEMBL1146741, “Cycloalkyl[b][1,4]benzodiazepinoindoles are agonists at the human 5-HT2C receptor” (Bioorg Med Chem Lett, 2004).

SMILES strings stand for the structures.

The target of assay [1] is 5-hydroxytryptamine receptor 2B (Homo sapiens) (UniProt P41595). Put plainly: Binding affinity against 5-hydroxytryptamine 2B receptor.
Assay [2] concerns the target Sodium-dependent serotonin transporter (Rattus norvegicus) (UniProt P31652). Description: Percent binding affinity against serotonin transporter. The following applies: concentration not given here.

Sequence of Sodium-dependent serotonin transporter (Rattus norvegicus) (P31652 whole entry, looked up): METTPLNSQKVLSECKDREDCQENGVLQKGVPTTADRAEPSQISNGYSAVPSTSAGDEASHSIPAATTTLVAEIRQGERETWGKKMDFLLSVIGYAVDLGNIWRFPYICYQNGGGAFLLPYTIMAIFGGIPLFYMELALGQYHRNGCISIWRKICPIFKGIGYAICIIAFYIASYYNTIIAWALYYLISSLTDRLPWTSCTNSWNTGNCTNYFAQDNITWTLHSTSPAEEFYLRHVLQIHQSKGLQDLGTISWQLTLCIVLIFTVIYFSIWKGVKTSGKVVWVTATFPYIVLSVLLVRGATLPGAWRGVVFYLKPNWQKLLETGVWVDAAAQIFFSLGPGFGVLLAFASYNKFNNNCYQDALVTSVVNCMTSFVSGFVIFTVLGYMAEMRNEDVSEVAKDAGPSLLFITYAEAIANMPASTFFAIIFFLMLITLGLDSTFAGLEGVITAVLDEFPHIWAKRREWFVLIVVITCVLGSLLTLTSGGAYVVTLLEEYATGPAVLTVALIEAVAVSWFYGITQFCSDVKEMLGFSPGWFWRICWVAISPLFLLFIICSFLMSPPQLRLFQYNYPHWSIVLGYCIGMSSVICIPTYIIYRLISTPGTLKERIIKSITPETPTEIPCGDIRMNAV

For the molecule `c1cc2c3c(c1)c1c(n3CCNC2)CCCCCC1`, in assay [1], the Ki was above 5 µM. In assay [2], this molecule had an inhibition of 14%.
